Measured values taken from patent publication US7427615B2, “3-substituted-4-pyrimidone derivatives” (Mitsubishi Pharma Corporation, priority 2001, dated 2008).

target: T1, bovine cerebral TPK1 (Bos taurus, UniProt A0A3Q1MT31); assay: Inhibitory activity against P-GS1 phosphorylation by bovine cerebral TPK1; type: biochemical; conditions: 41.7 μM [γ-32P]ATP, 25° C., 2 hours, pH 6.5
T1 construct: from tissue; host or cells: bovine brain (cerebrum)
Method: Test Example: Inhibitory activity of the medicament of the present invention against P-GS1 phosphorylation by bovine cerebral TPK1
A mixture containing 100 mM MES-sodium hydroxide (pH 6.5), 1 mM magnesium acetate, 0.5 mM EGTA, 5 mM β-mercaptoethanol, 0.02% Tween 20, 10% glycerol, 12 μg/ml P-GS1, 41.7 μM [Υ-^32P] ATP (68 kBq/ml), bovine cerebral TPK1 and a compound shown in Table (a final mixture contained 1.7% DMSO deriving from a solution of a test compound prepared in the presence of 10% DMSO) was used as a reaction system. The phosphorylation was started by adding ATP, and the reaction was conducted at 25° C. for 2 hours, and then stopped by adding 21% perchloric acid on ice cooling. The reaction mixture was centrifuged at 12,000 rpm for 5 minutes and adsorbed on P81 paper (Whatmann), and then the paper was washed four times with 75 mM phosphoric acid, three times with water and once with acetone. The paper was dried, and the residual radioactivity was measured using a liquid scintillation counter.

T1 sequence (A0A3Q1MT31 1-419): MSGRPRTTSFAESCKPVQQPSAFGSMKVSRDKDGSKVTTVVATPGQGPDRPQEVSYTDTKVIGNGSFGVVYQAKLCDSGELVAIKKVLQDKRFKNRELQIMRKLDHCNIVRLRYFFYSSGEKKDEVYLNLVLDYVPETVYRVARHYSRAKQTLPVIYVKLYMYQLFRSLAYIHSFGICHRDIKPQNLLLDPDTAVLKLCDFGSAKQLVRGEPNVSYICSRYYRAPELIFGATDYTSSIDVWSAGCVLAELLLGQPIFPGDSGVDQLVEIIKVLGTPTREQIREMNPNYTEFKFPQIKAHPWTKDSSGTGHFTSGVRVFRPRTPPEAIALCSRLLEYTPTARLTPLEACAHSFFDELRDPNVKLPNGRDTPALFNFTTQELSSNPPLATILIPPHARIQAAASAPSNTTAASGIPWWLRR

Structure (SMILES) | IC50
Cn1c(N2CCOC(c3ccc(F)cc3Cl)C2)nc(-c2ccncc2)cc1=O (centres unmarked) [B253] | 15 nM
Cn1c(N2CCO[C@@H](c3ccccc3Cl)C2)nc(-c2ccncc2)cc1=O [B046] | 8.3 nM
CCn1c(N2CCOC(c3c(OC)cccc3OC)C2)nc(-c2ccncc2)cc1=O (centres unmarked) [B263] | 1.2 nM
Cn1c(N2CCO[C@@H](c3c(F)cccc3F)C2)nc(-c2ccncc2)cc1=O [B110] | 8.2 nM
CC(C)Oc1ccc(C2CN(c3nc(-c4ccncc4)cc(=O)n3C)CCO2)cc1 (centres unmarked) [B122] | 63 nM
Cn1c(N2CCOC(c3ccc(N4CCCC4)cc3)C2)nc(-c2ccncc2)cc1=O (centres unmarked) [B140] | 8 nM
Cn1c(N2CCOC(c3cccc(N4CCCC4)c3)C2)nc(-c2ccncc2)cc1=O (single isomer, unassigned) [B288] | 40 nM
COc1ccc(-c2cccnc2)cc1C1CN(c2nc(-c3ccncc3)cc(=O)n2C)CCO1 (centres unmarked) [B256] | 1.1 nM
CCOc1ccccc1C1CN(c2nc(-c3ccncc3)cc(=O)n2C)CCO1 (centres unmarked) [B087] | 5 nM
COc1cc(OC(C)C)ccc1C1CN(c2nc(-c3ccncc3)cc(=O)n2C)CCO1 (centres unmarked) [B261] | 1.3 nM
COc1ccccc1C1CN(c2nc(-c3ccncc3)cc(=O)n2C)CCO1 (centres unmarked) [B084] | 1.1 nM
Cn1c(NCC(=O)c2ccccc2F)nc(-c2ccncc2)cc1=O [A002] | 27 nM
COc1ccc([C@H]2CN(c3nc(-c4ccncc4)cc(=O)n3C)CCO2)cc1 [B079, (S)-2-[2-(4-Methoxyphenyl)morpholin-4-yl]-3-methyl-6-pyridin-4-yl-3H-pyrimidin-4-one] | 3.3 nM
COc1cccc(OC)c1[C@H]1CN(c2nc(-c3ccncc3)cc(=O)n2C)CCO1 [B103] | 0.36 nM
Cn1c(N2CCOC(c3ccccc3Br)C2)nc(-c2ccncc2)cc1=O (centres unmarked) [B054] | 4 nM
COc1ccccc1[C@H]1CN(c2nc(-c3ccncc3)cc(=O)n2C)CCO1 [B085] | 1.4 nM
Cc1ccccc1C1CN(c2nc(-c3ccncc3)cc(=O)n2C)CCO1 (centres unmarked) [B063] | 6 nM
Cn1c(N2CCOC(CCc3ccccc3)C2)nc(-c2ccncc2)cc1=O (centres unmarked) [B010] | 6 nM
COc1cc(F)ccc1C1CN(c2nc(-c3ccncc3)cc(=O)n2C)CCO1 (centres unmarked) [B091] | 1.2 nM
Cn1c(N2CCO[C@H](c3c(Cl)cccc3Cl)C2)nc(-c2ccncc2)cc1=O [B107] | 50 nM

Structure (SMILES) | IC50
Cn1c(N2CCOC(c3cccc(N4CCCC4)c3)C2)nc(-c2ccncc2)cc1=O (single isomer, unassigned) [B289] | 33 nM
Cn1c(NCC(=O)c2cccc(Cl)c2)nc(-c2ccncc2)cc1=O [A006] | 13 nM
COc1cc(-c2ccccc2F)ccc1C1CN(c2nc(-c3ccncc3)cc(=O)n2C)CCO1 (centres unmarked) [B290] | 2 nM
Cn1c(N2CCOC(c3cc(F)c(F)cc3Cl)C2)nc(-c2ccncc2)cc1=O (centres unmarked) [B097] | 2.8 nM
Cn1c(N2CCOC(C(=O)c3ccccc3)C2)nc(-c2ccncc2)cc1=O (centres unmarked) [C101, 2-(2-benzoylmorpholin-4-yl)-3-methyl-6-pyridin-4-yl-3H-pyrimidin-4-one] | 3.5 nM
COc1ccc(-c2cccc(CN3CCCC3)c2)cc1C1CN(c2nc(-c3ccncc3)cc(=O)n2C)CCO1 (centres unmarked) [B287] | 0.57 nM
Cn1c(N2CCO[C@@H](c3c(Cl)cccc3Cl)C2)nc(-c2ccncc2)cc1=O [B106] | 1.4 nM
COc1cc(F)ccc1[C@@H]1CN(c2nc(-c3ccncc3)cc(=O)n2C)CCO1 [B285] | 8.9 nM
Cn1c(N2CCCC(C(=O)c3ccccc3)C2)nc(-c2ccncc2)cc1=O (centres unmarked) [C001, 2-(3-Benzoylpiperidin-1-yl)-3-methyl-6-pyridin-4-yl-3H-pyrimidin-4-one] | 2.1 nM
Cn1c(N2CCOC(C(=O)c3ccccc3)C2)nc(-c2ccncc2)cc1=O (single isomer, unassigned) [C390] | 1 nM
Cn1c(N2CCOC(C(=O)c3ccccc3)C2)nc(-c2ccncc2)cc1=O (single isomer, unassigned) [C389] | 34 nM
Cn1c(N2CCOC(c3ccc(F)c(F)c3)C2)nc(-c2ccncc2)cc1=O (centres unmarked) [B257] | 67 nM
Cn1c(N2CCCC(C(=O)Nc3ccccc3)C2)nc(-c2ccncc2)cc1=O (centres unmarked) [C067, 1-(1-Methyl-6-oxo-4-pyridin-4-yl-1,6-dihydro-pyrimidine-2-yl)-piperidine-3-carboxanilide] | 72 nM
Cn1c(N2CCOC(c3cccc(S(C)(=O)=O)c3)C2)nc(-c2ccncc2)cc1=O (centres unmarked) [B130] | 52.9 nM
Cn1c(NCC(=O)c2ccccc2)nc(-c2ccncc2)cc1=O [A001, 3-methyl-2-(2-oxo-2-phenylethylamino)-6-pyridin-4-yl-3H-pyrimidin-4-one] | 8.9 nM
Cn1c(N2CCOC(c3ccc(F)cc3Br)C2)nc(-c2ccncc2)cc1=O (centres unmarked) [B100] | 4.7 nM
Cn1c(N2CCO[C@@H](c3ccccc3F)C2)nc(-c2ccncc2)cc1=O [B037] | 4.8 nM
Cn1c(N2CCOC(c3ccc(OCC4CC4)cc3)C2)nc(-c2ccncc2)cc1=O (centres unmarked) [B128] | 30 nM
Cn1c(N2CCOC(c3cccc(Br)c3)C2)nc(-c2ccncc2)cc1=O (centres unmarked) [B051] | 1.9 nM

Next, values leading:

IC50 | Structure (SMILES)
11 nM | COc1cccc(C(=O)C2CCN(c3nc(-c4ccncc4)cc(=O)n3C)CC2)c1OC [D011]
23 nM | Cn1c(N2CCC(C(=O)c3ccccc3F)CC2)nc(-c2ccncc2)cc1=O [D002]
18 nM | COc1ccc(C(=O)C2CCN(c3nc(-c4ccncc4)cc(=O)n3C)CC2)cc1 [D007]
20 nM | Cn1c(N2CCC(C(=O)c3cccs3)CC2)nc(-c2ccncc2)cc1=O [D014]
16 nM | COc1cc(F)ccc1C(=O)C1CCN(c2nc(-c3ccncc3)cc(=O)n2C)CC1 [D025]
9 nM | Cn1c(N2CCC(C(=O)c3ccccc3)CC2)nc(-c2ccncc2)cc1=O [D001, 2-(4-benzoylpiperidin-1-yl)-3-methyl-6-pyridin-4-yl-3H-pyrimidin-4-one]
4.3 nM | Cn1c(N2CCC(C(=O)N3CCCc4ccccc43)CC2)nc(-c2ccncc2)cc1=O [D018]
15 nM | Cn1c(N2CCC(C(=O)c3ccc(F)cc3)CC2)nc(-c2ccncc2)cc1=O [D004]
19 nM | Cn1c(N2CCC(C(=O)c3cccc4ccccc34)CC2)nc(-c2ccncc2)cc1=O [D024]
11 nM | Cn1c(N2CCC(C(=O)c3ccc(Cl)s3)CC2)nc(-c2ccncc2)cc1=O [D021]
6 nM | Cn1c(N2CCC(C(=O)c3ccc(Cl)cc3)CC2)nc(-c2ccncc2)cc1=O [D009, 2-[4-(4-Chlorobenzoyl)piperidin-1-yl]-3-methyl-6-pyridin-4-yl-3H-pyrimidin-4-one]
19 nM | Cn1c(N2CCC(C(=O)c3ccc(F)c(F)c3)CC2)nc(-c2ccncc2)cc1=O [D013]
7.8 nM | Cn1c(N2CCC(C(=O)c3ccc(-c4ccccc4)cc3)CC2)nc(-c2ccncc2)cc1=O [D022]
10 nM | Cn1c(N2CCC(C(=O)n3ccc4ccccc43)CC2)nc(-c2ccncc2)cc1=O [D017]
8.1 nM | Cn1c(N2CCC(C(=O)N3CCc4ccccc43)CC2)nc(-c2ccncc2)cc1=O [D019]
19 nM | Cn1c(N2CCC(C(=O)c3ccc(F)cc3F)CC2)nc(-c2ccncc2)cc1=O [D012]
13 nM | Cn1c(N2CCC(C(=O)c3ccccc3-c3ccccc3)CC2)nc(-c2ccncc2)cc1=O [D023]
